Legend:
[1] = target: T1, Granzyme B (human lymphocytes) (Homo sapiens, UniProt P10144); assay: human Granzyme B biochemical assay; conditions: Granzyme B (human lymphocytes) 5 nM, substrate Ac-IETD-AFC 200 μM, 30 mins incubation, 22° C.
T1 construct: Supplied Granzyme B (human lymphocytes) enzyme is reconstituted to 1 mg/ml (about 31.25 μM); purchased Enzo Lifesciences ALX-200-602-0010; host or cells: human lymphocytes
Text: The compounds of Formula I described above can be tested using the human Granzyme B biochemical assay provided below.
• 1. Granzyme B (human lymphocytes) Enzyme: Enzo Lifesciences, Cat #ALX-200-602-0010 • 2. Substrate (Ac-IETD-AFC): Enzo Lifesciences, Cat #ALX-260-110-M010 • 3. Standard inhibitor (Compound 20-Isomer3): Synthesized internally in TCG • 4. Dimethyl sulfoxide (DMSO): Sigma-Aldrich, Cat #41639 • 5. HEPES: Gibco, Cat #15630-080 • 6. Calcium chloride: Sigma-Aldrich, Cat #C-5080 • 7. Distilled water: Gibco, Cat #15230-162 • 8. Bovine serum albumin (BSA): Sigma-Aldrich, Cat #A3059 • 9. Black, clear bottom PDL plate (384 wells): Greiner bio-one, Cat #781946 • 10. Polypropylene plate (384 wells): Corning, Cat #3657
• 1. DMSO is added to the respective compound vial to make 10 mM Compound stock solution, which is stored at −20° C. • 2. 10 mM Compound stock solution is thawed and 1 mM DMSO stock solution is prepared by adding 45 μl of DMSO to 5 μl of 10 mM compound stock solution. • 3. 1 mM DMSO stock solution is serially diluted (3.16 fold) by adding 10 μl of 1 mM DMSO stock to 21.6 μl of DMSO and mixed well. 10 μl of the resulting solution is then added to 21.6 μl of DMSO and mixed well. This process is continued to created 11 dilution points for the assay standard inhibitor and 8 dilution points for test compounds in 384 well polypropylene plate. • 4. 2 μl of each dilution are dispensed in assay ready plate. 5. Each well is then diluted 25 fold by adding 48 μl of assay buffer to 2 μl of compound in assay ready plate to make Compound working stock.
• 1. Supplied Granzyme B (human lymphocytes) enzyme is reconstituted to 1 mg/ml (about 31.25 μM) and 1 μl aliquots are kept in −80° C. • 2. 1 μl aliquot is diluted to 625 nM by adding 49 μl of assay buffer containing 0.1% BSA and gently mixed. • 3. 10 nM enzyme working stock is prepared by adding assay buffer containing 0.1% BSA.
• 1. Supplied substrate (Ac-IETD-AFC) is reconstituted by adding DMSO to make 10 mM stock, aliquoted and stored in −80° C. • 2. 4 mM substrate mid stock is prepared by adding DMSO. • 3. Substrate working stock i.e. 800 μM is prepared by adding assay buffer.
• 1. 10 μl of serially diluted Compound working stock (start dose 40 μM) is added from assay ready plate to assay plate according to the plate map. • 2. Positive control (40 μM of standard inhibitor) and negative control (4% DMSO buffer) are added to the respective wells. • 3. 20 μl of Enzyme working stock is added to assay plate and gently mixed. • 4. The plate is incubated at 22° C. for 30 mins and spun at 130 g for 1 minute. • 5. After incubation, 10 μl of Substrate working stock is added to respective wells and mixed (Assay plate is maintained in dark after substrate addition). • 6. The plate is incubated at 22° C. for 60 mins and spun at 130 g for 1 minute. • 7. Fluorescence read (RFU) (Ex: 400 nm/Em: 505 nm) is taken after 60 mins in EnVision Multimode plate reader.
• 1. The RFU read is analyzed to calculate percent inhibition by normalizing with positive and negative controls taken as 100% and 0% effect respectively in Microsoft excel. • 2. Graph is generated by putting the analyzed data in GraphPad prism 5.0 software to get IC50 value for each compound.

[2] = metabolic stability assay using liver microsomes; assay type: in vitro ADME; conditions: human liver microsomes 0.4 mg/ml, 1 μM, NRS, 37° C.
Procedure: In addition, compounds of Formula I described above are also tested in the metabolic stability assay using liver microsomes, as provided below.
Buffer pH7.4: Prepare 1 (M) KH2PO4 and 1 (M) K2HPO4. Titrate 1(M) K2HPO4 with 1 (M) KH2PO4 to obtain pH 7.40. Dilute this buffer 10 fold in Water (30 ml buffer+270 ml of water) to obtain 100 mM phosphate buffer. Adjust pH to 7.40±0.02 using 5(N) HCl or 5(N) NaOH.
NADPH Regeneration System (NRS): Prepare a solution containing 13 mM NADP, 33 mM Glucose-6-phosphate, 33 mM MgCl2 and 4 U/ml Glucose-6-phosphate dehydrogenase in buffer.
Liver Microsome (LM) suspension: Thaw LM vial on ice, then mix 1.0 ml LM (20 mg/ml) with 19 ml buffer [final LM Conc: 1 mg/ml]
LM+NRS suspension: Mix 5.0 ml NRS with 20 ml LM suspension [final LM Conc: 0.8 mg/ml]
System suitability standard: a synthesized compound having Mol wt 686.2 used as System suitability standard. Dissolve this compound in ice-cold acetonitrile to obtain concentration of 0.1 μg/ml and store at 4° C.
Sub stock (100 μM): 4 μl of 10 mM Compound Stock+398 μl Acetonitrile Working plate (2 μM): 10 μl of 100 μM Sub stock+490 μl buffer
Incubate all plastic materials including tips at 37° C. overnight.
Incubate LM suspension and NRS at 37° C. for 15 min before use.
Add 40 μl buffer to the wells of blank plate.
Add 40 μl compound (from working plate) to 0, 5, 10, 20, 30 and 60 min plates.
Initiate reaction by adding 40 μl of LM+NRS suspension in each plate.
Terminate reaction by adding 240 μl ice-cold acetonitrile containing system suitability standard at designated time points. For T=0 add 240 μl ice-cold acetonitrile containing system suitability standard before LM+NRS addition.
Centrifuge (3500 rpm, 20 min and 15° C.) the plates.
Mix 110 μl supernatant with 110 μl water and quantitate amount of Compound in the solution using LC-MS/MS.
% Remaining at t=x min=100×([LC-MS/MS peak area of analyte]t=x min)/([LC-MS/MS peak area of analyte]t=0min)
Human LM: Corning, Cat #25117
Certain compounds of this disclosure were tested in the microsomal stability assay provided above.

T1 sequence (P10144 21-247): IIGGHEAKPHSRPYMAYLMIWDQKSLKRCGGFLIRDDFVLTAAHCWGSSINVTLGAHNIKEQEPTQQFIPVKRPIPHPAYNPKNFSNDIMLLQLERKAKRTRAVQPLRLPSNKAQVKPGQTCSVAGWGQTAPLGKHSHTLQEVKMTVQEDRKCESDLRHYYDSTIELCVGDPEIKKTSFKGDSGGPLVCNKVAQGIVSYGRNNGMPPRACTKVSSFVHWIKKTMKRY

IC50 [1]	Human Liver Microsomes % remaining @30 min [2]	Compound
301 to 1000 nM	–	CC[C@H](C)[C@@H](C(=O)N[C@H]1CCc2cccc3c2N(C1=O)[C@H](C(=O)NCc1c[nH]nn1)C3)N(C)C(=O)Cc1csc2ccccc12 (single isomer, unassigned) [Compound C152]
301 to 1000 nM	66.3%	CC[C@H](C)[C@@H](C(=O)N[C@H]1CCc2cccc3c2N(C1=O)[C@H](C(=O)NCc1c[nH]nn1)C3)N(C)C(=O)COCCF (single isomer, unassigned) [Compound C155]
301 to 1000 nM	–	CC[C@H](C)[C@@H](C(=O)N[C@H]1CCc2cccc3c2N(C1=O)[C@H](C(=O)NCc1c[nH]nn1)C3)N(CC)C(=O)COCCF (single isomer, unassigned) [Compound C176]
1000 to 5000 nM	–	CC[C@H](C)[C@@H](C(=O)N[C@H]1CCc2cccc3c2N(C1=O)[C@H](C(=O)NCc1c[nH]nn1)C3)N(C(=O)COCCF)C(C)C (single isomer, unassigned) [Compound C177]
301 to 1000 nM	0.8%	CC[C@H](C)[C@@H](C(=O)N[C@H]1CCc2cccc3c2N(C1=O)[C@H](C(=O)NCc1c[nH]nn1)C3)N(CCOCCF)C(=O)Cc1nc2ccccc2o1 (single isomer, unassigned) [Compound C178]
301 to 1000 nM	–	CC[C@H](C)[C@@H](C(=O)N[C@H]1CCc2cccc3c2N(C1=O)[C@H](C(=O)NCc1c[nH]nn1)C3)N(CCOCCCF)C(=O)Cc1nc2ccccc2o1 (single isomer, unassigned) [Compound C179]
> 5000 nM	–	CC[C@H](C)[C@@H](C(=O)N[C@H]1CCc2cccc3c2N(C1=O)[C@H](C(=O)NCc1c[nH]nn1)C3)N(CCc1csc2ccccc12)C(C)=O (single isomer, unassigned) [Compound C184]
301 to 1000 nM	–	CC[C@H](C)[C@@H](C(=O)N[C@H]1CCc2cccc3c2N(C1=O)[C@H](C(=O)NCc1c[nH]nn1)C3)N(C)C(=O)CC(=O)O (single isomer, unassigned) [Compound C190]
301 to 1000 nM	83.6%	CC[C@H](C)[C@@H](C(=O)N[C@H]1CCc2cccc3c2N(C1=O)[C@H](C(=O)NCc1c[nH]nn1)C3)N(C)C(=O)CC(N)=O (single isomer, unassigned) [Compound C191]
301 to 1000 nM	72.8%	CC[C@H](C)[C@@H](C(=O)N[C@H]1CCc2cccc3c2N(C1=O)[C@H](C(=O)NCc1c[nH]nn1)C3)N(C)C(=O)CC(=O)NC (single isomer, unassigned) [Compound C192]
301 to 1000 nM	–	CC[C@H](C)[C@@H](C(=O)N[C@H]1CCc2cccc3c2N(C1=O)[C@H](C(=O)NCc1c[nH]nn1)C3)N(C)C(=O)CC(=O)N(C)C (single isomer, unassigned) [Compound C193]
301 to 1000 nM	–	CC[C@H](C)[C@@H](C(=O)N[C@H]1CCc2cccc3c2N(C1=O)[C@H](C(=O)NCc1c[nH]nn1)C3)N(C)C(=O)CC(=O)OC (single isomer, unassigned) [Compound C194]
301 to 1000 nM	–	CC[C@H](C)[C@@H](C(=O)N[C@H]1CCc2cccc3c2N(C1=O)[C@H](C(=O)NCc1c[nH]nn1)C3)N(C)C(=O)Cc1c[nH]cn1 (single isomer, unassigned) [Compound C197]
301 to 1000 nM	55.4%	CC[C@H](C)[C@@H](C(=O)N[C@H]1CCc2cccc3c2N(C1=O)[C@H](C(=O)NCc1c[nH]nn1)C3)N(C)C(=O)Cn1ccnc1 (single isomer, unassigned) [Compound C198]
301 to 1000 nM	–	CC[C@H](C)[C@@H](C(=O)N[C@H]1CCc2cccc3c2N(C1=O)[C@H](C(=O)NCc1c[nH]nn1)C3)N(CCOCCF)C(C)=O (single isomer, unassigned) [Compound C203]
301 to 1000 nM	98.2%	CC[C@H](C)[C@@H](C(=O)N[C@H]1CCc2cccc3c2N(C1=O)[C@H](C(=O)NCc1c[nH]nn1)C3)N(CCC(=O)O)C(=O)COCCF (single isomer, unassigned) [Compound C230]

Compound	IC50 [1]	Human Liver Microsomes % remaining @30 min [2]
N-Methyl-N-((1S,2S)-2-methyl-1- {(1S,8S)-9-oxo-1-[(1H-[1,2,3]triazol- 4-y lmethyl)-carbamoyl]-1,2,8,9- tetrahydro-7H-6-oxa-9a-aza- benzo[cd]azu1en-8-ylcarbamoyl}- butyl)-malonamic acid [Compound C214]	301 to 1000 nM	100.0%
